Earlier results, collected in patent publication US10092580B2, “Controlled-release otic structure modulating and innate immune system modulating compositions and methods for the treatment of otic disorders” (OTONOMY, INC., priority 2008, dated 2018).

What was measured:
[1] = administered by IV
V2-R = conditions: infusion into the scala tympani
[2] = minute concentrations (e.g., 0.05%)

CCN(CC)CC(=O)Nc1c(C)cccc1C [Lidocaine]
sufferers in whom the noise associated with tinnitus is reduced or eliminated [1]: 60-80%

Cc1ccccc1C(=O)Nc1ccc(C(=O)N2CCCC(N(C)C)c3ccccc32)cc1 (stereo not drawn) [OPC-31260]
Meniere's disease symptoms (V2-R): marked reduction

[H]/N=C(\N/C(=N/[H])NCCCCCCNC(=N)NC(=N)Nc1ccc(Cl)cc1)Nc1ccc(Cl)cc1 [chlorhexidene]
ototoxicity [2]: highly ototoxic
